Measured values taken from paper PMC9147695, “Design, Synthesis, Bioactivity Evaluation, Crystal Structures, and In Silico Studies of New α-Amino Amide Derivatives as Potential Histone Deacetylase 6 Inhibitors” (Molecules, 2022).
Read-outs that look alike come from different tables or passages of the source.

How the values were obtained:
[1] = system: HL-60; experiment: Anti-proliferative activity, CTG assay, HL-60 cells; format: cell-based; conditions: for inhibition at 10 µM / inhibition at 50 µM: read-out: Inhibition rate HL-60 (%)
Procedure: (§1) RPMI 8226 and HL-7702 cells were cultured in RPMI-1640 medium, Hela cells were cultured in MEM medium, and HL-60 cells were cultured in IMDM medium with 1% penicillin–streptomycin solution and 10% FBS, respectively. The above cells were cultured at 37 °C and 5% CO2. After 24 h of cell spreading, 99 μL of medium per well was prepared and 1 μL of the compound prepared solution was added to the wells. Then, the solution was incubated at 37 °C in a 5% CO2 incubator for 72 h. The cell plates to be tested were left at room temperature and 100 μL of medium per well was discarded. Then, 100 μL of CTG reagent was added, placed in a rapid shaker for 2 min, and left at room temperature away from light for 30 min. The chemiluminescence signal was read by an envision multifunctional enzyme marker. The inhibition ratios and IC50 values were calculated using Prism Graph Pad software.

[2] = system: Hela; experiment: Anti-proliferative activity, CTG assay, Hela cells; format: cell-based; conditions: 72 h; for inhibition at 10 µM / inhibition at 50 µM: read-out: Inhibition rate Hela (%)
Procedure: as §1

[3] = system: RPMI 8226; experiment: Anti-proliferative activity, CTG assay, RPMI 8226 cells; format: cell-based; conditions: for IC50: read-out: RPMI8226 (IC50); for inhibition at 10 µM / inhibition at 50 µM: read-out: Inhibition rate RPMI 8226 (%)
Procedure: as §1

[4] = Cytotoxicity toward human normal liver cells HL-7702, CTG assay; format: cell-based; conditions: human, HL-7702 normal liver cells, read-out: 50% cytotoxic concentration (CC50) HL-7702
Procedure: as §1

[5] = system: HL-7702; experiment: Cytotoxicity toward human normal liver cells HL-7702, CTG assay; format: cell-based; conditions: 72 h, read-out: 50% cytotoxic concentration (CC50) HL-7702
Procedure: as §1

[6] = Homo sapiens, HL-60, 72 h, 10 μM
[7] = Homo sapiens, HL-60, 72 h, 50 μM
[8] = Homo sapiens, RPMI-8226, 72 h, 10 μM
[9] = Homo sapiens, RPMI-8226, 72 h, 50 μM

SMILES	IC50 ([1]; Homo sapiens, HL-60, 72 h) [µM]	melting point [°C]	IC50 ([3]; Homo sapiens, RPMI-8226, 72 h) [µM]	CC50 at 72 h [4] [µM]	inhibition at 10 µM [1, 6] [%]	inhibition at 50 µM [1, 7] [%]	inhibition at 10 µM ([2]; Homo sapiens, HeLa, 10 μM) [%]	inhibition at 50 µM ([2]; Homo sapiens, HeLa, 50 μM) [%]	inhibition at 10 µM [3, 8] [%]	inhibition at 50 µM [3, 9] [%]	other results
COC(=O)C1CCCN1S(=O)(=O)c1ccc(-c2ccc(NC(=O)CN)cc2)cc1 [7a, (2R)-Methyl 1-{4-[4-[4-(2-Aminoacetamido)phenyl]benzenesulfonyl}pyrrolidine-2-carboxylate]	10.8	163.4 to 165.3	4.16	21.1							Inhibition rate HL-60 (%) ([1]; 10 μM, 72 h): 42.45 ± 1.11%; Inhibition rate HL-60 (%) ([1]; 50 μM, 72 h): 97.24 ± 0.02%; Inhibition rate Hela (%) ([2]; 10 μM): 98.11 ± 1.33%; Inhibition rate Hela (%) ([2]; 50 μM): 99.84 ± 0.11%; IC50 [2]: 0.31 µM; Inhibition rate RPMI 8226 (%) ([3]; 10 μM, 72 h): 74.54 ± 1.06%; Inhibition rate RPMI 8226 (%) ([3]; 50 μM, 72 h): 99.78 ± 0.03%
COC(=O)[C@H]1CCCN1S(=O)(=O)c1ccc(-c2ccc(NC(=O)[C@@H](C)N)cc2)cc1 [7b, (2R)-1-(4-{4-[(2R)-2-Aminopropionamido]phenyl}benzenesulfonyl)pyrrolidine-2-carboxylate Methyl Ester]		157.4 to 159.1			4.32 ± 1.35	46.9 ± 1.33	-10.9 ± 2.58	2.44 ± 0.72	-4.81 ± 3.62	41.4 ± 1.25	
COC(=O)[C@H]1CCCN1S(=O)(=O)c1ccc(-c2ccc(NC(=O)[C@H](C)N)cc2)cc1 [7c, Methyl (2R)-1-(4-{4-[(2S)-2-Aminopropionamido]phenyl}benzenesulfonyl)pyrrolidine-2-carboxylate]		155.1 to 158.3			2.78 ± 0.7	49.6 ± 0.82	-13.5 ± 1.33	8.63 ± 2.03	1.42 ± 0.97	49.7 ± 1.35	
COC(=O)[C@H]1CCCN1S(=O)(=O)c1ccc(-c2ccc(NC(=O)CN)nc2)cc1 [7d]		170.2 to 173.5			5.53 ± 1.21	16.9 ± 1.74	-5.24 ± 0.18	41.8 ± 2.62	1.7 ± 0.72	89.7 ± 1.48	
COC(=O)[C@H]1CCCN1S(=O)(=O)c1ccc(-c2ccc(NC(=O)[C@@H](C)N)nc2)cc1 [7e, Methyl (2R)-1-(4-{6-[(2R)-2-Aminopropionamido]pyridin-3-yl}benzenesulfonyl)pyrrolidine-2-carboxylate]		146 to 148.4			-0.89 ± 2.31	17.8 ± 0.86	-11.9 ± 1.69	7.27 ± 0.41	-2.63 ± 2.86	24.4 ± 0.79	
COC(=O)[C@H]1CCCN1S(=O)(=O)c1ccc(-c2ccc(NC(=O)[C@H](C)N)nc2)cc1 [7f, (2R)-1-(4-{6-[(2S)-2-Aminopropionamido]pyridin-3-yl}benzenesulfonyl)pyrrolidine-2-carboxylate Methyl Ester]		146.2 to 148.9			11.1 ± 0.74	28.2 ± 0.98	-2.62 ± 1.36	21.6 ± 6.65	-4.38 ± 0.19	29.4 ± 5.22	
COC(=O)C1CCCN1S(=O)(=O)c1ccc(-c2ccc(NC(=O)CN)cc2)cc1 [13a, (2S)-Methyl 1-{4-[4-[4-(2-Aminoacetamido)phenyl]benzenesulfonyl}pyrrolidine-2-carboxylate]					59 ± 2.12	99.25 ± 0.08	98.74 ± 0.04	99.68 ± 0.17	63.1 ± 1.99	99.89 ± 0.06	IC50 ([1]; 72 h): 7.23 µM; IC50 [2]: 5.19 µM; IC50 ([3]; 72 h): 5.85 µM; CC50 [5]: 27.5 µM
O=C(CCCCCCC(=O)Nc1ccccc1)NO [SAHA, vorinostat, reference compound]				2.03							

Further lines, with some results ahead:

IC50 ([1]; Homo sapiens, HL-60, 72 h) [µM]	melting point [°C]	SMILES	IC50 ([3]; Homo sapiens, RPMI-8226, 72 h) [µM]	CC50 at 72 h [4] [µM]	inhibition at 10 µM [1, 6] [%]	inhibition at 50 µM [1, 7] [%]	inhibition at 10 µM ([2]; Homo sapiens, HeLa, 10 μM) [%]	inhibition at 50 µM ([2]; Homo sapiens, HeLa, 50 μM) [%]	inhibition at 10 µM [3, 8] [%]	inhibition at 50 µM [3, 9] [%]	other results
10.3	156.4 to 159.1	COC(=O)[C@@H]1CCCN1S(=O)(=O)c1ccc(-c2ccc(NC(=O)[C@@H](C)N)cc2)cc1 [13b, (2S)-1-(4-{4-[(2R)-2-Aminopropionamido]phenyl}benzenesulfonyl)pyrrolidine-2-carboxylate Methyl Ester]	25.2	89.1	43.49 ± 0.21	100.03 ± 0.04	-4.83 ± 3.13	62.27 ± 0.57	0.89 ± 3.52	97.45 ± 0.36	IC50 ([2]; Homo sapiens, HeLa): 20.6 µM
30.9	155.3 to 157.6	COC(=O)[C@@H]1CCCN1S(=O)(=O)c1ccc(-c2ccc(NC(=O)[C@H](C)N)cc2)cc1 [13c, Methyl (2S)-1-(4-{4-[(2S)-2-Aminopropionamido]phenyl}benzenesulfonyl)pyrrolidine-2-carboxylate]	10.7	43.7	20 ± 2.83	96.55 ± 0.22	-3.69 ± 0.34	72.3 ± 1.57	29.6 ± 0.48	82.9 ± 2.04	IC50 ([2]; Homo sapiens, HeLa): 20.6 µM
10.5	170.3 to 172.9	COC(=O)[C@@H]1CCCN1S(=O)(=O)c1ccc(-c2ccc(NC(=O)CN)nc2)cc1 [13d]	32.2		32 ± 3.2	99.93 ± 0.05	-18.4 ± 2.15	33.4 ± 1.97	0.01 ± 0.52	92.27 ± 0.08	IC50 ([2]; Homo sapiens, HeLa): 17.4 µM
	146.2 to 148.9	COC(=O)[C@@H]1CCCN1S(=O)(=O)c1ccc(-c2ccc(NC(=O)[C@@H](C)N)nc2)cc1 [13e, Methyl (2S)-1-(4-{6-[(2R)-2-Aminopropionamido]pyridin-3-yl}benzenesulfonyl)pyrrolidine-2-carboxylate]			17.43 ± 0.16	99.98 ± 0.05	-12.6 ± 1.59	81.6 ± 1.09	5.5 ± 1.12	94.89 ± 0.02	
	146.8 to 149.1	COC(=O)[C@@H]1CCCN1S(=O)(=O)c1ccc(-c2ccc(NC(=O)[C@H](C)N)nc2)cc1 [13f, (2S)-1-(4-{6-[(2S)-2-Aminopropionamido]pyridin-3-yl}benzenesulfonyl)pyrrolidine-2-carboxylate Methyl Ester]			13.9 ± 0.73	99.81 ± 0.12	-6.37 ± 0.44	91.57 ± 0.51	12.4 ± 0.52	89.23 ± 0.24	
